Laboratory results taken from patent US4104383A, “Derivatives of phenylpropenylamine” (C M Industries, priority 1973, dated 1978).
In brackets after ≈: the same amount, converted by molar mass. Like-named read-outs stand apart in the source and are kept apart here.

Tests used:
mouse [1] = test: Activity test (spontaneous motility, photoelectric cell cage); format: in vivo; conditions: read-out: Activity, median effective dose
Description: (Boissier J. R. and Simon P. "Archives Internationales de Pharmacodynamie",1965, 158, 212).
A mouse was placed in a Plexiglass cage crossed by a plurality of beams of light acting on photoelectric cells. When the mouse moved and thereby interrupted one of the beams, this caused an electrical pulse which was registered on a counter. The measurements were carried out on batches of six treated animals and six control animals for a period of 20 minutes.
(§1) The results obtained from the tests described above are summarized in Table II; the figures given in this Table show the value of the median effective dose for each test. The method of administration is indicated by "I.V." for intravenous administration, "I.P." for intraperitoneal administration and "P.O." for oral administration.

Toxicity, LD50 in mice = conditions: mouse, in vivo
From the text: The toxicity of the compounds of the invention is generally low, as may be seen from Table IV, which gives the LD50 in mg/kg in mice for some of the compounds of the invention.

mouse [2] = test: Exploration test (plank with holes, anxiolytic activity); format: in vivo; conditions: read-out: Exploration, median effective dose
Description: (Boissier J. R. and Simon P. "Archives Internationales de Pharmacodynamie",1964, 147, 372).
This test, using a plank with holes in it, makes it possible to measure objectively the anxiolytic activity of a compound by noting the decrease in the number of holes explored within a given time by a treated mouse in comparison with a control mouse. The animals are used in batches of 10 and are allowed 5 minutes for exploration.
as §1

central nervous system [3] = test: Balancing test (rotating shaft); format: in vivo; conditions: mouse, read-out: Balancing, median effective dose
Description: (Boissier J. R., Dumont C. and Ratouis R. "Therapie", 1960, 15, 1170)
In this test, mice were placed for 1 minute on a horizontal wooden shaft which rotated steadily at 12 r.p.m. The mice will normally counteract this movement using positional and balancing reflexes; if, however, the central nervous system is affected, these reflexes are disturbed and a certain number of animals fall off.
as §1

central nervous system [4] = test: Traction test; format: in vivo; conditions: mouse, read-out: Traction, median effective dose
From the text: (Courvoisier S., Ducrot R. and Julou L. "Psychotropic Drugs", Elsevier, 1957, p.373)
In this test, a mouse was hung by its front legs on a stretched wire. The animal will normally recover by itself, by gripping with its rear legs within 5 seconds.
as §1

isolated rat duodenum = test: Antispasmodic activity, barium chloride-induced spasms of isolated rat duodenum; conditions: tyrode bath 37° C, barium chloride 100 μg/liter, compound added 3 minutes before, read-out: 50% effective concentration
Description: The antispasmodic activity of the compounds of the invention was also studied on the isolated rat duodenum, kept alive in an aerated tyrode bath at 37° C. Spasms were induced by the administration of barium chloride in an amount of 100 μg/liter. The compounds of the invention were added, at various concentrations, to the tyrode bath 3 minutes before the addition of the spasmogenic agent and the concentration determined of each which reduced by 50% the extent of the contraction caused by this agent.

dorsal hippocampus = test: Electroencephalographic study, electrical stimulation of the dorsal hippocampus; format: in vivo, rabbit; conditions: conscious rabbits, intravenous; 6 volts, 30 cycles per second, 5 seconds
From the text: Electroencephalographic study
(Schmitt H. and Schmitt H., "Therapie", 1966, 3, 675-684)
Electrical stimulation of the dorsal hippocampus (6 volts; 30 cycles per second; 5 seconds, extent: 1.5 milliseconds) causes electrical discharges in the rabbit which continue for several seconds after cessation of electrical stimulation. These discharges last from 15 to 19 seconds in a normal animal. When the rabbit is under the influence of an antidepressant drug, these discharges last much longer. The experiment was carried out on batches of six conscious rabbits implanted by the technique of Monnier M. and Gangloff H. ("Atlas of Stereotaxic brain research on the conscious rabbit", Elsevier 1961), the products being administered intraveneously. The discharges were increased by 60% when the rabbits were treated with compound 933 CB and by 20 % when the rabbits were treated with compound 994 CB.

mouse [5] = test: Reserpine test (reserpine-induced depression); format: in vivo; conditions: reserpine 5 mg/kg subcutaneously, read-out: Reserpine, median effective dose
Description: (Rubin B., Malone M. H., Waugh M. H. and Burke J. C., "Journal of Pharmacology and Experimental Therapeutics", 1957, 120, 125)
Reserpine, administered subcutaneously to a mouse in a dose of 5 mg/kg body weight, causes symptoms of severe depression, with absolute fixity, ptosis of the eyelids, hypothermia and catatonia; the simultaneous administration of a substance having anti-depressive properties leads to the progressive total or partial disappearance of this depressed state.
as §1

[6] = system: severely depressed hospital patients; test: Clinical evaluation in severely depressed hospital patients; format: in vivo, human
Description: A clinical evaluation of 933 CB was carried out using a sample of […] severely depressed hospital patients who were considering suicide or in some cases had attempted it. The sample contained 13 cases of nervous depression, 10 cases of reactional depression, seven cases of psychotic depression and three cases of severe melancholia. A clear favourable action on the depressive […] occurred in 21 of the patients. Several cases where a favourable response was noted had previously been treated with tricyclic antidepressants without success. […] The daily dose of the compound administered to each patient varied from 20 to 200 mg, the most favourable results being obtained with a dose of 40 to 60 mg.

[7] = system: adynamic and depressive states; test: Clinical use in adynamic and depressive states; format: in vivo; conditions: 2 to 10 compressed tablets of 100 mg daily or 1 to 5 injectible ampoules of 100 mg
Description: The compounds of the invention have been successfully used clinically to treat adynamic and depressive states, such as melancholia, reactive depressions and manic-depressive psychosis.
The compounds of the present invention are preferably formulated for oral administration or for injection. The compounds of the invention are also suitable for rectal administration. For oral administration, compressed tablets, each containing from 20 to 500 mg of active ingredient are recommended and for injection, ampoules each containing from 10 to 500 mg of active ingredient are recommended.

[8] = po, orally, read-out: LD50 orally
[9] = 30 severely depressed hospital patients, 20 to 200 mg daily

| SMILES | ED50 (mouse [1]; ip, I.P.) [mg/kg] | LD50 (Toxicity, LD50 in mice; ip, I.P., read-out: LD50 I.P.) [mg/kg] | LD50 (Toxicity, LD50 in mice; [8]) [mg/kg] | ED50 (mouse [2]; ip, I.P.) [mg/kg] | ED50 (central nervous system [3]; ip, I.P.) [mg/kg] | ED50 (central nervous system [4]; ip, I.P.) [mg/kg] | EC50 (isolated rat duodenum) [ng/mL] | Increase of hippocampal discharges (dorsal hippocampus) [%] | ED50 (mouse [2]; po, P.O.) [mg/kg] | ED50 (mouse [5]; ip, I.P.) [mg/kg] | ED50 (mouse [5]; po, P.O.) [mg/kg] | patients with a clear favourable action on the depressive thymine [6, 9] [patients] | patients with improvement noted in less than a week [6, 9] [patients] | rapidity of action (in words) ([6]; depressed patients) | ED50 (central nervous system [3]; po, P.O.) [mg/kg] | ED50 (mouse [1]; po, P.O.) [mg/kg] | ED50 (central nervous system [4]; po, P.O.) [mg/kg] | results on administration (in words) [7] |
| --- | --- | --- | --- | --- | --- | --- | --- | --- | --- | --- | --- | --- | --- | --- | --- | --- | --- | --- |
| Clc1cc(C=CCN2CCOCC2)ccc1C1CCCCC1 [31013 CB, 3-chloro-4-cyclohexyl-1-(3-morpholino-propen-1-yl)-benzene] | 50 | 500 | > 750 | 50 | – | – | – | – | – | – | – | – | – | – | – | – | – | – |
| CCN(CC)CC=Cc1ccc(C2CCCCC2)c(F)c1 [Compound 31030, 3-fluoro-4-cyclohexyl-1-(3-diethylamino-propen-1-yl)-benzene] | 100 | – | – | ≥ 50 | 25 | 50 | – | – | – | – | – | – | – | – | – | – | – | – |
| CCN(CC)CCCc1ccc(-c2ccccc2)cc1 [31001 CB, 4-(3-diethylamino-propyl)-biphenyl] | 50 | – | – | – | 100 | 100 | 1 (≈ 3.74 nM) | – | – | – | – | – | – | – | – | – | – | – |
| CCN(CC)CC=Cc1ccc(-c2ccccc2)cc1 [994 CB, 4-(3-diethylamino-propen-1-yl)-biphenyl] | 100 | – | – | 50 | 50 | 100 | 3 (≈ 11.3 nM) | 20 | 50 | 50 | 50 | – | – | – | – | – | – | – |
| CCN(CC)CCCc1ccc(C2CCCCC2)c(Cl)c1 [934 CB, 3-Chloro-4-cyclohexyl-1-(3-diethylamino-propyl)-benzene] | 30 | 125 to 250 | > 750 | 20 | 12.5 | – | 0.6 (≈ 1.95 nM) | – | – | 50 | – | – | – | – | – | – | – | – |
| CCN(CC)CC=Cc1ccc(C2CCCCC2)c(Cl)c1 [933 CB, 3-chloro-4-cyclohexyl-1-(3-diethylamino-propen-1-yl)-benzene] | 25 | 125 | > 1080 | 25 | 30 | 50 | 0.6 to 1 (≈ 1.96 to 3.27 nM) | 60 | 25 | 75 | 100 | 21 | 13 | The action was rapid | 50 | 100 | 100 | Good results were obtained |
| CN(C)CCCc1ccc(C2CCCCC2)c(Cl)c1 [31012 CB, 3-Chloro-4-cyclohexyl-1-(3-dimethylamino-propyl)-benzene] | 50 | 250 to 300 | > 750 | 50 | 100 | 100 | – | – | – | – | – | – | – | – | – | – | – | – |
| CCN(CC)CC=Cc1ccc(C2CCCCC2)cc1 [31023 CB, 4-cyclohexyl-1-(3-diethylamino-propen-1-yl)-benzene] | 25 | – | – | – | 30 | 25 | – | – | – | – | – | – | – | – | – | – | – | – |
| CN(C)CC=Cc1ccc(C2CCCCC2)c(Cl)c1 [31004 CB, 3-chloro-4-cyclohexyl-1-(3-dimethylamino-propen-1-yl)-benzene] | 12.5 | 125 | > 750 | 60 | 100 | > 100 | 1 to 3 (≈ 3.6 to 10.8 nM) | – | – | – | – | – | – | – | – | – | – | – |
| Clc1cc(C=CCN2CCCC2)ccc1C1CCCCC1 [31015 CB, 3-Chloro-4-cyclohexyl-1-(3-pyrrolidino-propen-1-yl)-benzene] | 20 | 62.5 | > 750 | 25 | 50 | 50 | 1 to 3 (≈ 3.29 to 9.87 nM) | – | – | 50 | – | – | – | – | – | – | – | – |
| Clc1cc(CCCN2CCCC2)ccc1C1CCCCC1 [31016 CB, 3-Chloro-4-cyclohexyl-1-(3-pyrrolidino-propyl)-benzene] | 12.5 | 50 to 100 | > 750 | 20 | – | – | – | – | – | 50 | – | – | – | – | – | – | – | – |
